Consider four compounds from patent US20230270696A1, “MEDICINAL USE OF FINGOLIMOD IN PREVENTION AND TREATMENT OF NEURODEGENERATIVE DISEASES CAUSED BY SPHINGOLIPID DISORDERS” (priority 2020, published 2023).

Structures can show the parent of a compound that is named as a salt.

Assay [1] concerns ATP13A2 KO neurodegenerative disease model mice. Briefly: Expression of genes related to sphingolipid metabolism in orbitofrontal cortex. In kind it is in vivo, mouse. The settings on record: one week after i.p. 0.5 mg/kg. As to the method: Red (dark) color indicates high expression and blue (light) color indicates low expression.
Experimental method: the experiment is divided into 4 groups: C57BL/6 normal WT mice+normal saline control group (WT+C group), ATP13A2 KO neurodegenerative disease model mice+normal saline control group (KO+C group), normal WT mice+FTY720 group (WT+FTY720 group), and ATP13A2 KO neurodegenerative disease model mice+FTY720 group (KO+FTY720 group). One week after intraperitoneal injection of FTY720 (0.5 mg/kg), samples are extracted from the orbitofrontal cortex area of mouse brain tissue, and Smpd1 Smpd2 Smpd3 Smpd4 Enpp7 Asah1 Asah2 Acer1 Acer2 Acer3 Cers1 Cers2 Cers3 Cers4 Cers5 Cers6 Col4a3 bp Cerk Gba Ugcg Degs1 Degs2 Sgpl1 Sptlc1 Sptic2 Sptic3 Abca1 Abca2 Abca7 Abca12 Abcc1 Abcg1 Abcg2 Sgms1 Sgms2 Cftr Sphk1 Sphk2 Slpr1 Kit Hexa Hexb Gal3st1 Gaphdh TERC TERT Ki67, etc. totally 47 genes related to sphingolipid metabolism are analyzed for comparison.

For assay [2] the test system is unchanged. As to the kind of experiment: Brain tissue neurotransmitter content by HPLC. The format is in vivo, mouse. The note with it: one week after i.p. 0.5 mg/kg, striatum, hypothalamus, substantia nigra. How it is done: Experimental method: the experiment is divided into four groups: C57BL/6 normal WT mice+normal saline control group (WT+C group), ATP13A2 KO neurodegenerative disease model mice+normal saline control group (KO+C group), normal WT mice+FTY720 group (WT+FTY720 group), and ATP13A2 KO neurodegenerative disease model mice+FTY720 group (KO+FTY720 group). One week after mice are injected intraperitoneally with FTY720 (0.5 mg/kg), samples are taken from the striatum, hypothalamus, and substantia nigra of mouse brain tissue to extract neurotransmitters in the brain. Using a high performance liquid chromatography, neurotransmitters such as dopamine, serotonin, and γ-aminobutyric acid are analyzed.

The subject of another assay is sphingomyelinase. Briefly: Sphingomyelinase activity assay (Sphingomyelinase Assay Kit ab138876) with or without FTY720. In kind it is biochemical. The settings on record: different sphingomyelinase concentrations, sphingomyelin as substrate, 60 min at 37° C., absorbance. How it is done: Different concentrations (horizontal axis) of purified sphingomyelinase are added in the presence or absence of FTY720 and incubation proceeded for 60 min at 37° C., before measuring sphingomyelin breakdown in absorbance. Blue line (top line): value of sphingomyelinase activity under normal control conditions, red line (bottom line): value of sphingomyelinase activity in the presence of FTY720.
Embodiment 4: Direct inhibition of sphingomyelinase by FTY720 Experimental method: FTY720 is purchased from Sigma, Cas No. 162359-56-0. Sphingomyelinase activity is determined using the Sphingomyelinase Assay Kit (ab138876) kit. The experiment is divided into two groups: normal sphingomyelinase activity assay group and sphingomyelinase activity assay group in the presence of FTY720.

In assay [3] the test system is ATP13A2 KO neurodegenerative disease model mice. Briefly: Rotating rod test of movement function. The format is in vivo, mouse. How it is done: Experimental method: five drugs, including fingolimod, fluoxetine, clomipramine, desipramine, and trimipramine, are selected for oral administration (0.5 mg/kg) to diseased mice. The effect of the drugs on the movement function of the mice is examined one week after drug administration.
Experimental method: The experiment is divided into four groups: C57BL/6 normal WT mice+normal saline control group (WT+C group), ATP13A2 KO neurodegenerative disease model mice+normal saline control group (KO+C group), normal WT mice+FTY720 group (WT+FTY720 group), and ATP13A2 KO neurodegenerative disease model mice+FTY720 group (KO+FTY720 group). The mice are injected intraperitoneally with FTY720 (0.25 mg/kg/day, i.p.). 5 days later, the mice are tested for movement function using a rotating rod test.
Experimental method: The experiment is divided into four groups: C57BL/6 normal WT mice+normal saline control group (WT+C group), ATP13A2 KO neurodegenerative disease model mice+normal saline control group (KO+C group), normal WT mice+FTY720 group (WT+FTY720 group), ATP13A2 KO neurodegenerative disease model mice+FTY720 group (KO+FTY720 group). FTY720 dissolved in water is administered to mice orally administered (0.5 mg/kg/day), and one week later, the mice are tested for movement function using the rotating rod test.
Experimental method: The experiment is divided into four groups: C57BL/6 normal WT mice+normal saline control group (WT+C group), ATP13A2 KO neurodegenerative disease model mice+normal saline control group (KO+C group), normal WT mice+FTY720 group (WT+FTY720 group), and ATP13A2 KO neurodegenerative disease model mice+FTY720 group (KO+FTY720 group). A single administration (10 μg, i.c.v.) is administered to the mice by ventricular injection, and one week later, the mice are tested for movement function using the rotating rod test.
(§1) Experimental method: The experiment is divided into four groups: C57BL/6 normal WT mice+normal saline control group (WT+C group), ATP13A2 KO aged disease model mice+normal saline control group (KO+C group), normal WT mice+FTY720 group (WT+FTY720 group), and ATP13A2 KO neurodegenerative disease model mice+FTY720 group (KO+FTY720 group). The mice are administered orally (0.5 mg/kg/day), and after two weeks, the movement function of the mice is examined using the standing test and the rotating rod test.

For assay [4] the test system is unchanged. As to the kind of experiment: Transmission electron microscopy of brain tissue (lipofuscin deposition, axonal myelin sheath tearing). In kind it is in vivo, mouse. The settings on record: two weeks after oral administration, TEM. The text has this: Experimental method: The experiments are divided into three groups: C57BL/6 wild normal mice (WT), ATP13A2 KO neurodegenerative disease model mice+normal saline control (KO+C), and FTY720 treatment ATP13A2 KO mice (KO+FTY720). Mice are executed two weeks after oral administration, and brain tissue is removed and fixed for transmission electron microscopy analysis.

In assay [5] the test system is ATP13A2 KO spastic paraplegic model mice. Briefly: Standing test (number of standing per 30 minutes). The format is in vivo, mouse. How it is done:
1-7 days with administration treatment on the disease model mice (shaded), 7-14 days with discontinuation treatment (unshaded), and 15-21 days with restored secondary administration treatment (shaded).
Experimental method: Spastic paraplegic ATP13A2 KO mice (KO mice) are divided into four groups and given normal saline or FTY720 dissolved in normal saline at 0.05, 0.1, and 0.5 mg/kg/day for oral administration, and the mice are tested in a standing test after 7 days of oral administration.
Experimental method: The experiment is divided into two groups: C57BL/6 wild normal mice (WT) and ATP13A2 KO spastic paraplegic model mice (KO), which are administered FTY720 0.5 mg/k/day orally at the same time, discontinued after 0-7 days of administration, and resumed after one week of discontinuation, during which the mice are tested for standing every other day.
as §1

Assay [6] deals with aged ATP13A2 KO paraplegic mouse. Briefly: Standing in beaker and hind limb foot-based angle (FBA) before and after drug administration. In kind it is in vivo. How it is done:
as §1
Meanwhile, the same aged ATP13A2 KO neurodegenerative disease mouse is placed in an upright glass beaker to observe its standing (FIG. 19). […] The angle of the hind limb to the ground (FBA, foot-based angle) in the aged ATP13A2 KO paraplegic mouse is also measured.

The test system of assay [7] is ATP13A2 KO neurodegenerative disease model mice. Briefly: Lipidomic assay of striatum brain tissue (LC-MS). The format is in vivo, mouse. The note with it: one week after i.p. 0.5 mg/kg. How it is done:
Experimental method: the experiment is divided into 4 groups: C57BL/6 normal WT mice+normal saline control group (WT+C group), ATP13A2 KO neurodegenerative disease model mice+normal saline control group (KO+C group), normal WT mice+FTY720 group (WT+FTY720 group), and ATP13A2 KO neurodegenerative disease model mice+FTY720 group (KO+FTY720 group). One week after intraperitoneal injection of FTY720 (0.5 mg/kg), mice are sampled from the striatum of brain tissue, lipids are extracted from the brain tissue samples using a lipid extraction method, appropriate internal standards are added. All lipid analysis is performed in electrospray ionization (ESI) mode using a liquid mass spectrometer.

The test system of assay [8] is MEF cells deficient in ATP13A2. Briefly: Drug screening: intracellular sphingomyelin (SM C18) content by mass spectrometry. In kind it is cell-based, mouse. The settings on record: ATP13A2 KO MEF cells treated 48 hours (FIG. 8 legend: 10 μM, 37° C., 24 h). How it is done: Experimental method: ten potential sphingolipid metabolic drugs reported in the literature for screening the modulatory effects on intracellular sphingolipids are selected, namely Fingolimod, Fluoxetine, Amitriptyline, Clomipramine, Desipramine, Siponimod, KRP-203, Amlodipine, Sertraline, Trimipramine, etc. MEF cells with disease-causing gene ATP13A2 KO are obtained using the disease model mouse embryos isolated and cultured. The MEF cells deficient in ATP13A2 are treated with the above ten drugs individually for 48 hours, and the intracellular content of sphingomyelin (SM C18) is measured by mass spectrometry.

Where [9] appears, read: aged ATP13A2 KO mice, oral 0.5 mg/kg/day, two weeks.

For the compound `CCCCCCCCc1ccc(CCC(N)(CO)CO)cc1` [FTY720, 2-amino-2-[2-(4-octylphenyl)]-1,3-propanediol hydrochloride], the “expression of cers4, cerk and sphk1” value in assay [1] is recorded as “downregulated”. Further, the “expression of smpd1 and enpp7” value in [1] is “upregulated”. Further, the “neurotransmitter contents (dopamine, serotonin, γ-aminobutyric acid) in brain tissue” value in assay [2] is “restored to the normal group level”. Further, the “sphingomyelinase activity compared to the control group” value in the assay on sphingomyelinase is listed as “significant decrease”. Besides, the “duration of stay in the rotating rod” value in assay [3] (0.25 mg/kg/day i.p., 5 days, ATP13A2 KO mice vs control group) is “significantly longer”; in assay [3] (setting [9]), “significantly longer”; in assay [3] (oral 0.5 mg/kg/day, one week, ATP13A2 KO mice vs control group) it was “significantly longer”; in assay [3] (single 10 μg i.c.v., one week later, ATP13A2 KO mice vs control group), “significantly longer”. The “motor function (rotating rod), screen of five drugs” value in assay [3] (oral 0.5 mg/kg, one week after drug administration, ATP13A2 KO mice) is recorded as “improves the motor function of the ATP13A2 KO disease model mice among the five drugs with the most significant effect”. Moreover, in assay [4] (more than 100 cells counted), the “number of intracellular lipofuscins in brain tissue” value is recorded as “significantly reduced”. Moreover, the “number of torn axonal myelin sheaths in brain tissue” value in assay [4] (more than 100 myelin sheaths counted) is “significantly reduced”. Moreover, the number of standing result in assay [5] (setting [9]) was “significant increase”. Further, the “number of standing after drug discontinuation” value in [5] (one week of discontinuation after 7 days oral 0.5 mg/k/day) is “gradual decrease”. Moreover, the “number of standing per 30 minutes during administration” value in assay [5] (oral 0.5 mg/k/day, days 0-7, ATP13A2 KO paraplegic mice) was “increases significantly with increasing administration time”. The “number of standing per 30 minutes” value in assay [5] (oral 0.05, 0.1 and 0.5 mg/kg/day, after 7 days, ATP13A2 KO paraplegic mice) is “increased to different degrees in a dose-dependent manner”. In assay [5] (resumed oral administration, days 15-21), the “number of standing after resumption of administration” value is recorded as “gradual increase”. The “standing in an upright glass beaker after drug administration” value in assay [6] (same aged ATP13A2 KO mouse before and after drug, oral 0.5 mg/kg/day) is “can be photographed to stand up by clinging to the beaker wall”. Besides, the “angle of the hind limb to the ground (FBA, foot-based angle)” value in assay [6] (same aged ATP13A2 KO paraplegic mouse before and after drug) is on record as “significant increase”. In addition, the “content of sphingomyelin and ceramide in striatum” value in [7] was “mostly restores to the normal group level”. Further, the “intracellular sphingomyelin (SM C18) content” value in assay [8] is listed as “most obvious elevation”.
As for `CN(C)CCC=C1c2ccccc2CCc2ccccc21` [amitriptyline], the “intracellular sphingomyelin (SM C18) content” value in [8] is given as “most obvious elevation”.
Still for that read-out and setting: in the case of `CN(C)CCCN1c2ccccc2CCc2ccc(Cl)cc21` [clomipramine] it was “most obvious elevation”; in that of `CNCCC(Oc1ccc(C(F)(F)F)cc1)c1ccccc1` (centres unmarked) [fluoxetine], “most obvious elevation”.
